Tested on: human Gal-alpha1,3-Gal-specific antibodies
Test: Glycosylated peptide competitive assay on Gal-BSA coated plates with human sera IB72 (FIG. 4)
Type: binding
Details: positive control, mixed with human sera IB72
Protocol: To further evaluate the ability of the glycosylated specificity exchangers to bind to a pathogen, a glycosylated peptide competitive assay was performed using the most reactive human sera (IB72). In brief, Gal-alpha1,3-Gal-labeled bovine serum albumin (Gal-BSA) was coated onto 96-well microplates in sodium carbonate buffer (pH: 9.6) at +4° C. overnight. Dilutions of human sera and dilutions of glyco-peptides (glycosylated HIV-specific ligand/receptor specificity exchangers or Gal-BSA) or non-glycosylated peptides (HIV-specific ligand/receptor specificity exchangers or BSA) were preincubated in phosphate-buffered saline (PBS) containing 1% bovine albumin, 2% goat serum and 0.05% Tween 20 at 37° C. for 1 h. The mixture was then added to the coated plates and incubated at 37° C. for 1 h, then washed 3 times with phosphate-buffered saline (PBS) containing 0.05% Tween 20 (pH: 7.4).
Bound antibodies were indicated with goat anti-human polyvalent Ig, conjugated with alkaline phosphatase. The plates were incubated and washed as described above. Plates were developed with phosphatase substrate at room temperature for 30 min, stopped with 1 M NaOH. Optical density (OD) at 405 nm/650 nm was determined to quantify the inhibition. […] Thus, specificity exchangers that bind Gal-alpha1,3-Gal-specific antibodies had been generated. […]

## Gal-alpha1,3-Gal-labeled bovine serum albumin [Gal-BSA]
  inhibition of human antibody binding to Gal-BSA: 100%

Source: US7335359B2, “Glycosylated specificity exchangers” (Tripep AB, priority 2003, dated 2008)
